≈ marks a conversion by molar mass, not a printed value. Peptide text beside a SMILES is read from it.
What was measured:
C57BL/6 mice = test: Acute toxicity in mice; format: in vivo; details: intraperitoneal
Protocol: C57BL/6 mice (n=6/group) were intraperitoneally injected with MSI-1 (0, 10, 20, 40, 80 and 100 mg/kg/body weight, respectively). Animals were inspected for adverse effects for 30 min, and survival was monitored for 12 h thereafter. The toxicity severity was classified as Malik U et al previously described.

murine spleen cells = test: Cytotoxicity, MTT; format: cell-based; details: 48 h
Protocol: The cytotoxicity of peptides towards murine spleen cells (obtained from healthy murine with aseptic technique) and other eukaryotic cells (HaCaT, GES-1, human L02, B16F10, A549, H460) were determined by routine MTT method. Cells were incubated with serially diluted peptides (final concentrations: 1.563, 3.125, 6.25, 12.5, 25, 50, 100 and 200 μM) for 48 h.

MSSE E8 = test: microbe, parasite or virus in culture; format: cell-based, Staphylococcus epidermidis; details: MSSE E8, clinical strain
Protocol: (§1) Bacterial strains were purchased from the American Type Culture Collection (ATCC). All clinical strains were isolated from human clinical specimens by the Medical Laboratory Center of Zhongda Hospital (Nanjing, Jiangsu, China). Ndm-1, tem-1, ctx-m-1, shv-1 -carrying bacteria were constructed as previously described. The recombinant bacteria carrying drug-resistant genes were prepared in LB nutrient and induced by IPTG (1 mM) for 4 h before text. Other bacterial strains were respectively prepared in MHB and Columbia Blood Agar Base.
(§2) A standard micro-broth serial dilution assay was used to measure MIC of peptides. MIC was obtained by a microplate reader at 600 nm. MBC was determined as previously described.

MRSE N109 = test: microbe, parasite or virus in culture; format: cell-based, Staphylococcus epidermidis; details: MRSE N109, clinical strain
Protocol: as §1, §2

MSSE E3 = test: microbe, parasite or virus in culture; format: cell-based, Staphylococcus epidermidis; details: MSSE E3, clinical strain
Protocol: as §1, §2

MRSE N104 = test: microbe, parasite or virus in culture; format: cell-based, Staphylococcus epidermidis; details: MRSE N104, clinical strain
Protocol: as §1, §2

S. epidermidis ATCC35984 = test: microbe, parasite or virus in culture; format: cell-based
Protocol: as §1, §2

E. coli ATCC25922 = test: microbe, parasite or virus in culture; format: cell-based; details: micro-broth serial dilution, 600 nm
Protocol: as §1, §2

[1] = tested on: P. aeruginosa T8 (ESBLs (+)); test: microbe, parasite or virus in culture; format: cell-based; details: P. aeruginosa T8 (ESBLs (+)), clinical strain
Protocol: as §1, §2

E. coli A5 (ESBLs (+)) = test: microbe, parasite or virus in culture; format: cell-based; details: E. coli A5 (ESBLs (+)), clinical strain
Protocol: as §1, §2

S. aureus ATCC25923 = test: microbe, parasite or virus in culture; format: cell-based
Protocol: as §1, §2

E. coli A9 (ESBLs (+)) = test: microbe, parasite or virus in culture; format: cell-based; details: E. coli A9 (ESBLs (+)), clinical strain
Protocol: as §1, §2

[2] = tested on: P. aeruginosa T1 (ESBLs (+)); test: microbe, parasite or virus in culture; format: cell-based; details: P. aeruginosa T1 (ESBLs (+)), clinical strain
Protocol: as §1, §2

E. coli A2 (ESBLs (+)) = test: microbe, parasite or virus in culture; format: cell-based; details: E. coli A2 (ESBLs (+)), clinical strain
Protocol: as §1, §2

E. cloacae S1 (AmpC (+)) = test: microbe, parasite or virus in culture; format: cell-based; details: E. cloacae S1 (AmpC (+)), clinical strain
Protocol: as §1, §2

Shigella flexneri = test: microbe, parasite or virus in culture; format: cell-based
Protocol: as §1, §2

E. cloacae S3 (AmpC (+)) = test: microbe, parasite or virus in culture; format: cell-based; details: E. cloacae S3 (AmpC (+)), clinical strain
Protocol: as §1, §2

[3] = tested on: P. aeruginosa T6 (ESBLs (+)); test: microbe, parasite or virus in culture; format: cell-based; details: P. aeruginosa T6 (ESBLs (+)), clinical strain
Protocol: as §1, §2

E. faecalis = test: microbe, parasite or virus in culture; format: cell-based
Protocol: as §1, §2

S. pneumoniae ATCC 49619 = test: microbe, parasite or virus in culture; format: cell-based
Protocol: as §1, §2

P. aeruginosa ATCC27853 = test: microbe, parasite or virus in culture; format: cell-based
Protocol: as §1, §2

E. faecium = test: microbe, parasite or virus in culture; format: cell-based
Protocol: as §1, §2

G- and G+ bacteria = test: Antimicrobial activity, summary over the strains; format: cell-based; details: both G- and G+ bacteria, summary of Table 1
Protocol: as §2

[4] = tested on: K. peneumoniae B6 (ESBLs (+)); test: organism not typed; format: cell-based; details: K. peneumoniae B6 (ESBLs (+)), clinical strain
Protocol: as §1, §2

[5] = tested on: K. peneumoniae B9 (ESBLs (+)); test: organism not typed; format: cell-based; details: K. peneumoniae B9 (ESBLs (+)), clinical strain
Protocol: as §1, §2

K. peneumoniae ATCC4352 = test: organism not typed; format: cell-based
Protocol: as §1, §2

[6] = tested on: K. peneumoniae B4 (ESBLs (+)); test: organism not typed; format: cell-based; details: K. peneumoniae B4 (ESBLs (+)), clinical strain
Protocol: as §1, §2

MSSA D4 = test: microbe, parasite or virus in culture; format: cell-based, Staphylococcus aureus; details: MSSA D4, clinical strain
Protocol: as §1, §2

MRSA M108 = test: microbe, parasite or virus in culture; format: cell-based, Staphylococcus aureus; details: MRSA M108, clinical strain
Protocol: as §1, §2

MSSA D1 = test: microbe, parasite or virus in culture; format: cell-based, Staphylococcus aureus; details: MSSA D1, clinical strain
Protocol: as §1, §2

MRSA M101 = test: microbe, parasite or virus in culture; format: cell-based, Staphylococcus aureus; details: MRSA M101, clinical strain
Protocol: as §1, §2

PRSP P112 = test: microbe, parasite or virus in culture; format: cell-based, Streptococcus pneumoniae; details: PRSP P112, clinical strain
Protocol: as §1, §2

PRSP P105 = test: microbe, parasite or virus in culture; format: cell-based, Streptococcus pneumoniae; details: PRSP P105, clinical strain
Protocol: as §1, §2

PISP F34 = test: microbe, parasite or virus in culture; format: cell-based, Streptococcus pneumoniae; details: PISP F34, clinical strain
Protocol: as §1, §2

PISP F22 = test: microbe, parasite or virus in culture; format: cell-based, Streptococcus pneumoniae; details: PISP F22, clinical strain
Protocol: as §1, §2

[7] = tested on: MRSA, Methicillin-resistant clinical isolates; format: cell-based, Staphylococcus aureus
Protocol: as §1, §2

[8] = tested on: P. aeruginosa, Penicillin-, Imipenem- and Ceftazidime- resistant clinical isolates; format: cell-based
Protocol: as §1, §2

[9] = tested on: S. epidermidis, Amoxicillin-, Cephalexin- and Levofloxacin- resistant clinical isolates; format: cell-based
Protocol: as §1, §2

[10] = tested on: S. pneumoniae, Amoxicillin-, Cephalexin- and Levofloxacin- resistant clinical isolates; format: cell-based
Protocol: as §1, §2

[11] = tested on: E. coli BL21(DE3)-NDM-1 (ndm-1-carrying recombinant E. coli); format: cell-based
Protocol: as §1, §2

Helicobacterpylori SS1 = format: cell-based; details: Helicobacterpylori SS1
Protocol: as §1, §2

[12] = tested on: K. pneumonia, Penicillin-, Imipenem- and Ceftazidime- resistant clinical isolates; format: cell-based
Protocol: as §1, §2

[13] = tested on: S. aureus, Amoxicillin-, Cephalexin- and Levofloxacin- resistant clinical isolates; format: cell-based
Protocol: as §1, §2

[14] = tested on: E. coli, Penicillin-, Imipenem- and Ceftazidime- resistant clinical isolates; format: cell-based
Protocol: as §1, §2

[15] = tested on: S. pyogenes, Penicillin-, Erythromycin- and Levofloxacin- resistant clinical isolates; format: cell-based
Protocol: as §1, §2

CC[C@H](C)[C@H](NC(=O)CN)C(=O)N[C@@H](Cc1c[nH]c2ccccc12)C(=O)N[C@@H](CCCCN)C(=O)N[C@@H](Cc1ccccc1)C(=O)N[C@@H](CC(C)C)C(=O)N[C@@H](CCCCN)C(=O)N[C@@H](CCCCN)C(=O)N[C@@H](C)C(=O)N[C@@H](CCCCN)C(=O)N[C@@H](CCCCN)C(=O)N[C@@H](Cc1ccccc1)C(=O)N[C@@H](Cc1c[nH]c2ccccc12)C(N)=O [MSI-3] (H-GIWKFLKKAKKFW-NH2)
deaths (C57BL/6 mice; 100 mg/kg): some of the mice in the MSI-3-treated group died
adverse effects at approximately 5 min post injection (C57BL/6 mice; dose of peptide above 40 mg/kg, n=6/group): displayed narrowing of the eyes, one mouse was crouching and cuddling, and the other mouse showed convulsions
effect on the survival of mouse spleen cells compared with the parent peptide (murine spleen cells): significantly higher

CC[C@H](C)[C@H](NC(=O)[C@@H](N)Cc1c[nH]c2ccccc12)C(=O)N[C@@H](CCCNC(=N)N)C(=O)N[C@@H](CCCCN)C(=O)N[C@@H](Cc1ccccc1)C(=O)N[C@@H](CC(C)C)C(=O)N[C@@H](CCCCN)C(=O)N[C@@H](CCCNC(=N)N)C(=O)N[C@H](C(=O)N[C@@H](CCCCN)C(=O)N[C@@H](CCCCN)C(=O)N[C@@H](Cc1ccccc1)C(=O)NCC(N)=O)C(C)C [MSI-4] (H-WIRKFLKRVKKFG-NH2)
MIC (MSSE E8): 16 µg/mL (≈ 9.38 µM)
MIC (MRSE N109): 32 µg/mL (≈ 18.8 µM)
MIC (MSSE E3): 16 µg/mL (≈ 9.38 µM)
MIC (MRSE N104): 32 µg/mL (≈ 18.8 µM)
MIC (S. epidermidis ATCC35984): 16 µg/mL (≈ 9.38 µM)
MIC (E. coli ATCC25922): 16 µg/mL (≈ 9.38 µM)
MIC [1]: 64 µg/mL (≈ 37.5 µM)
MIC (E. coli A5 (ESBLs (+))): 16 µg/mL (≈ 9.38 µM)
MIC (S. aureus ATCC25923): 16 µg/mL (≈ 9.38 µM)
MIC (E. coli A9 (ESBLs (+))): 32 µg/mL (≈ 18.8 µM)
MIC [2]: 16 µg/mL (≈ 9.38 µM)
MIC (E. coli A2 (ESBLs (+))): 32 µg/mL (≈ 18.8 µM)
MIC (E. cloacae S1 (AmpC (+))): 16 µg/mL (≈ 9.38 µM)
MIC (Shigella flexneri): 16 µg/mL (≈ 9.38 µM)
MIC (E. cloacae S3 (AmpC (+))): 32 µg/mL (≈ 18.8 µM)
MIC [3]: 32 µg/mL (≈ 18.8 µM)
MIC (E. faecalis): 32 µg/mL (≈ 18.8 µM)
MIC (S. pneumoniae ATCC 49619): 16 µg/mL (≈ 9.38 µM)
MIC (P. aeruginosa ATCC27853): 32 µg/mL (≈ 18.8 µM)
MIC (E. faecium): 16 µg/mL (≈ 9.38 µM)
MIC (range over strains) (G- and G+ bacteria): 16 to 64 µg/mL
MIC [4]: 32 µg/mL (≈ 18.8 µM)
MIC [5]: 16 µg/mL (≈ 9.38 µM)
MIC (K. peneumoniae ATCC4352): 32 µg/mL (≈ 18.8 µM)
MIC [6]: 64 µg/mL (≈ 37.5 µM)
MIC (MSSA D4): 16 µg/mL (≈ 9.38 µM)
MIC (MRSA M108): 64 µg/mL (≈ 37.5 µM)
MIC (MSSA D1): 32 µg/mL (≈ 18.8 µM)
MIC (MRSA M101): 32 µg/mL (≈ 18.8 µM)
MIC (PRSP P112): 32 µg/mL (≈ 18.8 µM)
MIC (PRSP P105): 64 µg/mL (≈ 37.5 µM)
MIC (PISP F34): 16 µg/mL (≈ 9.38 µM)
MIC (PISP F22): 32 µg/mL (≈ 18.8 µM)

CC[C@H](C)[C@H](NC(=O)CN)C(=O)NCC(=O)N[C@@H](C)C(=O)N[C@H](C(=O)N[C@@H](CC(C)C)C(=O)N[C@@H](CCCCN)C(=O)N[C@H](C(=O)N[C@@H](CC(C)C)C(=O)N[C@H](C(=O)N[C@H](C(=O)NCC(=O)N[C@@H](CC(C)C)C(=O)N1CCC[C@H]1C(=O)N[C@@H](C)C(=O)N[C@@H](CC(C)C)C(=O)N[C@H](C(=O)N[C@@H](CO)C(=O)N[C@@H](Cc1c[nH]c2ccccc12)C(=O)N[C@H](C(=O)N[C@@H](CCCCN)C(=O)N[C@@H](CCCNC(=N)N)C(=O)N[C@@H](CCCCN)C(=O)N[C@@H](CCCNC(=N)N)C(=O)N[C@@H](CCC(N)=O)C(=O)N[C@@H](CCC(N)=O)C(N)=O)[C@@H](C)CC)[C@@H](C)CC)[C@@H](C)O)[C@@H](C)O)C(C)C)C(C)C [Melittin]
MBC [7]: 8 µg/mL (≈ 2.81 µM)
MIC [7]: 4 µg/mL (≈ 1.41 µM)
MBC [8]: 8 µg/mL (≈ 2.81 µM)
MIC [8]: 4 µg/mL (≈ 1.41 µM)
MBC [9]: 16 µg/mL (≈ 5.62 µM)
MIC [9]: 4 µg/mL (≈ 1.41 µM)
MBC [10]: 16 µg/mL (≈ 5.62 µM)
MIC [10]: 8 µg/mL (≈ 2.81 µM)
MBC [11]: 8 µg/mL (≈ 2.81 µM)
MIC [11]: 4 µg/mL (≈ 1.41 µM)
MBC (Helicobacterpylori SS1): 16 µg/mL (≈ 5.62 µM)
MIC (Helicobacterpylori SS1): 8 µg/mL (≈ 2.81 µM)
MBC [12]: 16 µg/mL (≈ 5.62 µM)
MIC [12]: 8 µg/mL (≈ 2.81 µM)
MBC [13]: 32 µg/mL (≈ 11.2 µM)
MIC [13]: 8 µg/mL (≈ 2.81 µM)
MBC [14]: 8 µg/mL (≈ 2.81 µM)
MIC [14]: 4 µg/mL (≈ 1.41 µM)
MBC [15]: 16 µg/mL (≈ 5.62 µM)
MIC [15]: 8 µg/mL (≈ 2.81 µM)

From paper PMC6956804, “Potent antibacterial activity of MSI-1 derived from the magainin 2 peptide against drug-resistant bacteria” (Theranostics, 2020)
